{
  "source": "patent US6623933B1",
  "about": "(priority 1999, dated 2003)",
  "key": {"[1]": {"target": "NR1011/NR2A (Rattus norvegicus, UniProt P35439+Q00959)"}, "[2]": {"target": "T1, NR1111/NR2A (Rattus norvegicus, UniProt P35439+Q00959)", "T1 sequence (Q00959 23-1464, other chains not shown)": "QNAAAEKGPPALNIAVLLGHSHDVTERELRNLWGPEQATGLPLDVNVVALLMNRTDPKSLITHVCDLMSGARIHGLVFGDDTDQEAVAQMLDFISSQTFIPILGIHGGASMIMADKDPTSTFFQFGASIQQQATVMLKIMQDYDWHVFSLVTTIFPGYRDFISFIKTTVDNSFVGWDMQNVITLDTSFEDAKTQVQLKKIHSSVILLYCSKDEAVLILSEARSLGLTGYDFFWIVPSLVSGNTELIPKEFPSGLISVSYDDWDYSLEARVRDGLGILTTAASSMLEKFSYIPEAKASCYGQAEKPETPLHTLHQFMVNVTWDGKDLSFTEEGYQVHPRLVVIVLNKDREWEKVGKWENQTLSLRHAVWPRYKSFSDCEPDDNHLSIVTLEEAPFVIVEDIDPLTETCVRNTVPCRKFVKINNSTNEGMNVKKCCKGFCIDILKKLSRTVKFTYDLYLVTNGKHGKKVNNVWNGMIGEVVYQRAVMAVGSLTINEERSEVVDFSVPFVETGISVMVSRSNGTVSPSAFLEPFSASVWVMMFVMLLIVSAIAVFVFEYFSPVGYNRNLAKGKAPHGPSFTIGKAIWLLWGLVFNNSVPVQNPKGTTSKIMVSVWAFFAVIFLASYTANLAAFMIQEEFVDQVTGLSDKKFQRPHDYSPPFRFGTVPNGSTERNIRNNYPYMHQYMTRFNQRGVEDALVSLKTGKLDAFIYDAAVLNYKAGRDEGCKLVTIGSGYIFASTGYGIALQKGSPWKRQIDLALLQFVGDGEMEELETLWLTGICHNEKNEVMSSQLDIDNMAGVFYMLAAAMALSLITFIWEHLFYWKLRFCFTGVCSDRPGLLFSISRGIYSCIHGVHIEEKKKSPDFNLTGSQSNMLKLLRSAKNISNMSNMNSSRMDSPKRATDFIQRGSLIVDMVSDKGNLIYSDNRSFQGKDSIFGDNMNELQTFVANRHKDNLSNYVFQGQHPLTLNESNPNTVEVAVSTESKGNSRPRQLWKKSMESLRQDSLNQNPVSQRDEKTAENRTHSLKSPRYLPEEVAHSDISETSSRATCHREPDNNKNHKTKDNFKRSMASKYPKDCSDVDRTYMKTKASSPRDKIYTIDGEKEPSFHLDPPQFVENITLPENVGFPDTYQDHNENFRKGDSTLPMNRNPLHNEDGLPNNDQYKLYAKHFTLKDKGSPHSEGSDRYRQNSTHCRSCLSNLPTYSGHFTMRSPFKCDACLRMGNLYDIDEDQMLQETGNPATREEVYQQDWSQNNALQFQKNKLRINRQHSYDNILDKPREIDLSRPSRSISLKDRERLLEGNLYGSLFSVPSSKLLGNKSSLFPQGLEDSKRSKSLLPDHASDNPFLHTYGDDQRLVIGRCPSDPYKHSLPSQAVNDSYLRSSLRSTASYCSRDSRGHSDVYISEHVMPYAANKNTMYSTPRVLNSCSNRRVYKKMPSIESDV", "assay": "NMDA-induced currents of NR1 splice variants, Xenopus oocytes, Example 4", "format": "cell-based", "parameters": "expressed in transfected cells; host or cells: Xenopus oocytes injected with NR1111 and NR2A mRNA", "details": "for maximum relative current (MRC) / percentage potentiation of the maximum NMDA response: NR1111/2A", "protocol": "Overnight cultures (500 ml) of transformed bacterial cells were prepared in order to grow sufficient quantities for maxiprep isolation of the plasmid CDNA. Maxipreps were done using a Sorvall RC-5B ultracentrifuge, Qiagen columns and cDNA was quantitated with spectrophotometry (OD260 and OD260/ OD280 ratio). The resulting plasmid cDNA was linearized by digestion with an appropriate restriction enzyme that cleaves distal to the cDNA insert (XhoI for NR2A or NotI for NR1100, NR1000, NR1111, NR1011, NR1101, NR1001). […] The samples were stored at −20° C. until use.\nIn vitro transcription was performed using the Ambion mMessage mMachine kit with T7 (NR1100, NR1000, NR1111, NR1011, NR1101, NR1001) RNA polymerase. The reaction was assembled on ice and allowed to incubate at 37° C. for 1-2 hr. The resulting mRNA was precipitated (reaction termination) using lithium chloride/5 mM EDTA solution and dissolved in RNase-free H2O. The concentration (OD260) and OD260/OD280 ratio (should be more than 1.5) was determined by spectrophotometer. The yield of mRNA was generally 15-30 μg. mRNA was stored at −80° C. until use.\nIntracellular recording microelectrodes were fabricated from 100 μl borosilicate glass disposable micropipettes using a 2-step protocol on a standard horizontal Flaming-Brown micropipette puller."}, "[3]": {"target": "NR1101/NR2A (Rattus norvegicus, UniProt P35439+Q00959)", "sequence (Q00959 23-1464, other chains not shown)": "as above"}, "[4]": {"target": "NR1/NR2D (NR1100) (Rattus norvegicus, UniProt P35439+Q62645)", "excerpt": "Plasmids containing the NR1100 (NR1G) and NR2A cDNA inserts were kindly provided by Dr. Nakanishi (Kyoto University Faculty of Medicine, Kyoto, Japan). Plasmids containing the NR2B, NR2C and NR2D cDNA inserts were kindly provided by Dr. P. Seeburg (Heidelberg University, Heidelberg, Germany). Plasmids were linearized with appropriate restriction enzyme prior to in vitro transcription using the Message Machine kit (Ambion, Inc., Austin, Tex.).\nFemale, oocyte-positive Xenopus laevis frogs were purchased from Xenopus I (Dexter, Mich.). […] Oocytes were injected with 50 nL of RNA solutions using an electronic microinjector (Drummond Inc., Broomall, Pa.). […] The injected oocytes were used for experiments following 1-5 days of incubation in Barth's solution at 18-20° C.\nThe microelectrodes were fabricated from borosilicate glass capillaries with a programmed puller (Sutter Instrument Co., Calif.). Microelectrode resistance was 1-3 MΩ_when filled with 3 M KCl.\nExcept where otherwise stated, oocytes were clamped at a holding potential of −70 mV during data acquisition. The membrane current was filtered at 500 Hz and sampled at 100 Hz. Drugs were applied using a gravity-driven external perfusion system. The working volume of the recording chamber was 30 μl and the rate of the perfusion was 50 μl/sec. The drug application lasted 10 sec and was followed by 60 s wash. Data acquisition and external perfusion were controlled using custom-written software implemented in the SuperScope II development environment (GW Instruments, Mass.). All experiments were performed at room temperature of 22-24° C. Peak or steady-state current measurements were normalized and expressed as a fraction of the peak or steady-state control current measurements, which were performed before and after application of every single concentration of agonists or steroids.\nConcentration-response data were analyzed by nonlinear regress ion using the logistic equation Response=Emax/(1+(EC50/c)^nH), where c is concentration, Emaxis the maximum response, nHis the Hill coefficient. The data are presented as mean±SEM. EC50values are averaged as logarithms (De Lean et al., Am. J. Physiol. 235: E97-E102 (1978))±the SEM of the log EC50. […] The pooled data were simultaneously fitted to the logistic equation, either with Emax and EC50 constrained to be identical in the presence and absence of PS, or allowing one or both to vary independently. […] This was regarded as indicating a significant treatment effect of PS, but the change in EC50and Emaxwas not considered significant. […] No attempt was made to test the generally small changes in nHfor statistical significance."}, "[5]": {"target": "Penta-Mutant/NR2A (Rattus norvegicus, UniProt P35439+Q00959, K193A/K202A/R187A/R233A/R252A)", "assay": "NMDA-induced currents, Xenopus oocytes, Example 5", "details": "300 uM NMDA, 50 uM Glycine", "quoted_text": "Plasmids were linearized with appropriate restriction enzyme prior to in vitro transcription using the Message Machine kit (Ambion, Inc., Austin, Tex.).\nFemale, oocyte positive Xenopus laevis frogs were purchased from Xenopus I (Dexter, Mich). […] Oocytes were injected with 50 nL of RNA solutions using an electronic microinjector (Drummond Inc., Broomall, Pa.). […] The injected oocytes were used for experiments following 1-5 days of incubation in Barth's solution at 18-20° C.\nThe microelectrodes were fabricated with a programmed puller (Sutter Instrument Co., Calif.) from borosilicate glass capillaries and were filled with 3 M KCl solution. The resistance of filled microelectrodes was in the range of 1-3 MΩ. […] If not mentioned otherwise, during data acquisition oocytes were clamped at a holding potential of −70 mV. The membrane current was filtered at 500 Hz and sampled at 100 Hz. Drugs were applied using a gravity driven external perfusion system. The working ,volume of the recording chamber was 30 μl and the rate of the perfusion was 50 μl/sec. The drug application lasted 10 sec and was followed by a 60 sec wash. The data acquisition and external perfusion control were done using the SuperScopeII software package (GW Instruments, Mass.). All experiments were performed at room temperature (22-24° C.). Peak or steady-state current measurements were normalized and expressed as a fraction of the peak or steady-state control current measurements, which were performed before and after application of every single consentration of agonist or steroid. […] The data are presented as mean±S.E.M. with number of experiments in parentheses."}, "[6]": {"target": "NR1/NR2B (NR1100) (Rattus norvegicus, UniProt P35439+Q00960)"}, "[7]": {"target": "NR1000/NR2A (Rattus norvegicus, UniProt P35439+Q00959)"}, "[8]": {"target": "T1, NR1111/NR2A"}, "[9]": {"target": "T2, NR1100+NR2A NMDA receptor (Rattus norvegicus, UniProt P35439+Q00959)", "T2 construct": "expressed in transfected cells; host or cells: Xenopus oocytes co-injected with NR1100 and NR2A cRNA", "T2 sequence (Q00959 23-1464, other chains not shown)": "as above", "assay": "NMDA-induced currents, Xenopus oocytes, Example 1", "format": "cell-based", "details": "for Percentage change in NMDA response: NR1100 + NR2A, steroid 100 μM, −100 mV", "description": "Plasmids were obtained from the following individuals: Dr. Suzanne Zukin (Albert Einstein College of Medicine, Bronx, N.Y.), NR1100; Dr. Shigetada Nakanishi (Kyoto University Faculty of Medicine, Kyoto, Japan), NR2A; Dr. Stephen Heinemann (Salk Institute, San Diego, Calif.), GluR1 (flop), GluR3 (flop), and GluR6. Plasmids were linearized with BamH1 (NR1100), XhoI (NR2A, GluR1, GluR3) or XbaI (GluR6) prior to in vitro transcription with T3 (GluR1, GluR3, GluR6) or T7 (NR1100, NR2A) RNA polymerase using the Message Machine kit (Ambion, Austin, Tex.). […] RNA solutions (50-70 nl) were injected into oocytes for delivery of NR1100 (5 ng), NR1100:NR2A (1:10 ng), GluR1 (5 ng). GluR3 (5 ng), or GluR6 (20 ng). Oocytes were incubated in ND96 at 18-20° C. for 3-7 days prior to electrophysiological recording.\nSteroid solutions were prepared as 70-100 mM frozen stocks in dimethyl sulfoxide (DMSO). The final DMSO concentration of all recording solutions was between 0.1% to 0.5% and was constant within an experiment.\nPerfusion control and data acquisition were carried out using an automated oocyte electrophysiology workstation that was developed for the rapid collection of concentration-response data and real-time waveform analysis (Yaghoubi et al., Soc. Neurosci. Abstr. 20: 1109 (1995)). This system is implemented on a Macintosh IIci computer (Apple Computer, Cupertino, Calif.) equipped with MacA-DIOS II data acquisition and control hardware (GW Instruments, Somerville, Mass.). Drug application is controlled by the computer through a series of valves, using custom-written software based on the SuperScope II development environment, improving the efficiency and reproducibility of data collection. Experiments were carried out using an Axoclamp-2A voltage clamp amplifier (Axon Instruments, Foster City, Calif.) in two-electrode voltage clamp mode. Intracellular microelectrodes (1-3 MΩ) were filled with 3 M KCl. […] Membrane potential was clamped at −60 to −70 mV and stepped to −100 mV at the start of data acquisition unless otherwise stated. […] Current and voltage recordings were digitized at 100 Hz for analysis. GluR6 injected oocytes were treated for 10 min with 10 μg/ml concanavalin A to prevent fast desensitization.\nResults are expressed as mean±S.E.M. Statistical comparisons were made using Student's t-test."}},
  "note": "“And” between values parts separate entries of the source, which are not always exact repeats. Equal entries are not always repeated. Structures can show the parent of a compound that is named as a salt.",
  "data": [
    {"compound": "CC(=O)[C@H]1CC[C@H]2[C@@H]3CC[C@@H]4C[C@H](OS(=O)(=O)O)CC[C@]4(C)[C@H]3CC[C@]12C", "note": "[3α5βS, 3α5β-pregnanolone sulfate]", "values": [
      {"measurement": "3α5βS Emax", "setting": "[1]; splice variant 011 /NR2A", "result": "−0.86 ± 0.04"},
      {"measurement": "3α5βS nHill", "setting": "[1]; splice variant 011 /NR2A", "result": "0.96 ± 0.06"},
      {"measurement": "inhibition at 100 µM", "setting": "[2]; pH 7.5, read-out: percentage inhibition of the maximum NMDA response", "result": 59, "unit": "%"},
      {"measurement": "3α5βS Emax", "setting": "[3]; splice variant 101 /NR2A", "result": "−0.90 ± 0.07"},
      {"measurement": "3α5βS nHill", "setting": "[3]; splice variant 101 /NR2A", "result": "1.05 ± 0.25"},
      {"measurement": "3α5βS nH", "setting": "[4]", "result": "1.14 ± 0.16"},
      {"measurement": "percent decrease in maximum inward current", "setting": "[5]; Penta-Mutant/NR2A, 100 uM steroid", "result": "42.79±2.29", "unit": "%"},
      {"measurement": "3α5βS nH", "setting": "[6]", "result": "1.06 ± 0.04"},
      {"measurement": "3α5βS Emax", "setting": "[7]; splice variant 000 /NR2A", "result": "−0.89 ± 0.01"},
      {"measurement": "3α5βS nHill", "setting": "[7]; splice variant 000 /NR2A", "result": "0.98 ± .03"},
      {"measurement": "maximum extent of inhibition by 3α5βS", "setting": "[8]; NR1111/NR2A", "result": "75±7", "unit": "%"},
      {"measurement": "3α5βS Emax", "setting": "[8]; splice variant 111 /NR2A", "result": "−0.75 ± 0.07"},
      {"measurement": "3α5βS nHill", "setting": "[8]; splice variant 111 /NR2A", "result": "1.09 ± 0.9"},
      {"measurement": "EC50", "setting": "[9]", "result": 41, "unit": "µM"},
      {"measurement": "Percentage change in NMDA response", "setting": "[9]; 100 μM NMDA", "result": "−64 ± 3(7) %"}
    ]},
    {"compound": "pregnenolone sulfate [PS]", "values": [
      {"measurement": "Maximum potentiation of NMDA-induced current by PS", "setting": "[1]; NR1011/NR2A", "result": "2.14±0.17", "unit": "fold"},
      {"measurement": "PS Emax", "setting": "[1]; NR1011/NR2A", "result": "1.14 ± 0.17"},
      {"measurement": "PS nHill", "setting": "[1]; NR1011/NR2A", "result": "1.18 ± 0.18"},
      {"measurement": "maximum relative current (MRC)", "setting": "[2]; 100 μM PS, 200 μM NMDA+10 μM glycine, pH 7.5", "result": 2.28},
      {"measurement": "maximum relative current (MRC)", "setting": "[2]; 100 μM PS, pH 6.5", "result": 4.06},
      {"measurement": "percentage potentiation of the maximum NMDA response", "setting": "[2]; 100 μM PS, pH 7.5", "result": 103, "unit": "%"},
      {"measurement": "maximum relative current (MRC)", "setting": "[2]; 100 μM PS, pH 8.5", "result": "1.59 and 1.58"},
      {"measurement": "percentage potentiation of the maximum NMDA response", "setting": "[2]; 100 μM PS, pH 8.5", "result": 47, "unit": "%"},
      {"measurement": "difference in mrc between pH=6.5 and pH=7.5", "setting": "[2]; NR1111/NR2A, 100 μM PS", "result": 1.8, "unit": "fold"},
      {"measurement": "difference in mrc between pH=7.5 and pH=8.5", "setting": "[2]; NR1111/NR2A, 100 μM PS", "result": 1.4, "unit": "fold"},
      {"measurement": "Maximum potentiation of NMDA-induced current by PS", "setting": "[3]; NR1101/NR2A", "result": "1.66±0.10", "unit": "fold"},
      {"measurement": "PS Emax", "setting": "[3]; NR1101/NR2A", "result": "0.66 ± 0.10"},
      {"measurement": "PS nHill", "setting": "[3]; NR1101/NR2A", "result": "1.52 ± 0.24"},
      {"measurement": "PS nH", "setting": "[4]", "result": "1.16 ± 0.08"},
      {"measurement": "PS Emax (% Change)", "setting": "[4]; 10 μM NMDA, 10 μM glycine", "result": "−70 ± 6", "unit": "%"},
      {"measurement": "inhibition of NMDA response", "setting": "[4]; 100 μM PS, 10 μM NMDA", "result": "26±1", "unit": "%"},
      {"measurement": "reduction in PS potentiation of the NMDA response vs wild type", "setting": "[5]; 100 uM PS", "result": "40% and 47.5±8.80%"},
      {"measurement": "PS nH", "setting": "[6]", "result": "1.42 ± 0.11"},
      {"measurement": "enhancement of NMDA-induced current", "setting": "[6]; 100 μM PS, […] μM NMDA", "result": "78±9", "unit": "%"},
      {"measurement": "PS Emax (% Change)", "setting": "[6]; […] μM NMDA, 10 μM glycine", "result": "+202 ± 10%"},
      {"measurement": "Maximum potentiation of NMDA-induced current by PS", "setting": "[7]; NR1000/NR2A", "result": "2.14±0.08", "unit": "fold"},
      {"measurement": "PS Emax", "setting": "[7]; NR1000/NR2A", "result": "1.14 ± 0.08"},
      {"measurement": "PS nHill", "setting": "[7]; NR1000/NR2A", "result": "1.31 ± 0.06"},
      {"measurement": "Maximum potentiation of NMDA-induced current by PS", "setting": "[8]; NR1111/NR2A", "result": "1.51±0.04", "unit": "fold"},
      {"measurement": "PS nHill", "setting": "[8]; NR1111/NR2A", "result": "1.28 ± 0.19"},
      {"measurement": "PS Emax", "setting": "[8]; NR1111/NR2A, curve 1+Emax/(1+(EC50/c)n)", "result": "0.51 ± 0.04"},
      {"measurement": "Percentage change in NMDA response", "setting": "[9]; 100 μM NMDA", "result": "+281 ± 27(7) %"},
      {"measurement": "maximum enhancement of NMDA response", "setting": "[9]; NR1100+NR2A, 100 μM NMDA", "result": 343, "unit": "%"},
      {"measurement": "steroid Emax (NMDA-induced current relative to control)", "setting": "[9]; NR1100+NR2A, 100 μM NMDA", "result": 4.43}
    ]}
  ]
}
